Numbers after ± are expanded uncertainties.
Experiments:
[1] = 298.15 K; 101.33 kPa; Liquid; Vibrating tube method
[2] = Boiling temperature at pressure P; conditions: 101.33 kPa; Liquid; Ebulliometric method (Recirculating still)

Row | SMILES | mass density [1] [kg/m3] | Boiling temperature at pressure P [2] [°C]
1 | CCOCCO [2-ethoxyethan-1-ol] | 928.73 ± 2 | 135.47 ± 0.1
2 | COCCO [2-methoxyethan-1-ol] | 965.31 ± 2 | 124.52 ± 0.1
3 | CC1CCCCC1 [methylcyclohexane] | 766.29 ± 2 | 100.73 ± 0.1

From the NIST ThermoML archive (doi:10.1016/j.fluid.2014.07.041)
